Reference: US10988477B2 (Merck Patent GmbH, priority 2018, dated 2021)

Experiments:
GCN2 kinase = GCN2 kinase (Homo sapiens, UniProt Q9P2K8); assay: GCN2 enzyme inhibition assay (Transcreener ADP2 fluorescence polarization); assay type: biochemical; settings: Enzyme activity for compounds of Formula IV; Ki(app), 280 μM ATP, 25° C.
In short: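 Run at 25 °C in 25 mM Tris-HCl pH 7.5, 50 mM NaCl, 10 mM MgCl2, 1 mM DTT with 4 nM GCN2, 280 μM ATP and 200 μM (RS)7 peptide; compound (0–8 μM final) preincubated 10 min, reaction 1 h. ADP read by antibody/tracer FP; IC50 and Ki(app) from tight-binding fit.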

[1] = target: intracellular GCN2 (phosphorylation of the GCN2 substrate eIF2α) (Homo sapiens, UniProt Q9P2K8); assay: GCN2 cellular inhibition assay (AlphaScreen SureFire P-eIF2α Ser51, borrelidin-treated U2OS cells); assay type: cell-based; settings: compounds of Formula IV; biomarker assay, phosphorylated eIF2α Ser51 in borrelidin-treated U2OS cells
Sequence of intracellular GCN2 (phosphorylation of the GCN2 substrate eIF2α) (Q9P2K8 whole entry): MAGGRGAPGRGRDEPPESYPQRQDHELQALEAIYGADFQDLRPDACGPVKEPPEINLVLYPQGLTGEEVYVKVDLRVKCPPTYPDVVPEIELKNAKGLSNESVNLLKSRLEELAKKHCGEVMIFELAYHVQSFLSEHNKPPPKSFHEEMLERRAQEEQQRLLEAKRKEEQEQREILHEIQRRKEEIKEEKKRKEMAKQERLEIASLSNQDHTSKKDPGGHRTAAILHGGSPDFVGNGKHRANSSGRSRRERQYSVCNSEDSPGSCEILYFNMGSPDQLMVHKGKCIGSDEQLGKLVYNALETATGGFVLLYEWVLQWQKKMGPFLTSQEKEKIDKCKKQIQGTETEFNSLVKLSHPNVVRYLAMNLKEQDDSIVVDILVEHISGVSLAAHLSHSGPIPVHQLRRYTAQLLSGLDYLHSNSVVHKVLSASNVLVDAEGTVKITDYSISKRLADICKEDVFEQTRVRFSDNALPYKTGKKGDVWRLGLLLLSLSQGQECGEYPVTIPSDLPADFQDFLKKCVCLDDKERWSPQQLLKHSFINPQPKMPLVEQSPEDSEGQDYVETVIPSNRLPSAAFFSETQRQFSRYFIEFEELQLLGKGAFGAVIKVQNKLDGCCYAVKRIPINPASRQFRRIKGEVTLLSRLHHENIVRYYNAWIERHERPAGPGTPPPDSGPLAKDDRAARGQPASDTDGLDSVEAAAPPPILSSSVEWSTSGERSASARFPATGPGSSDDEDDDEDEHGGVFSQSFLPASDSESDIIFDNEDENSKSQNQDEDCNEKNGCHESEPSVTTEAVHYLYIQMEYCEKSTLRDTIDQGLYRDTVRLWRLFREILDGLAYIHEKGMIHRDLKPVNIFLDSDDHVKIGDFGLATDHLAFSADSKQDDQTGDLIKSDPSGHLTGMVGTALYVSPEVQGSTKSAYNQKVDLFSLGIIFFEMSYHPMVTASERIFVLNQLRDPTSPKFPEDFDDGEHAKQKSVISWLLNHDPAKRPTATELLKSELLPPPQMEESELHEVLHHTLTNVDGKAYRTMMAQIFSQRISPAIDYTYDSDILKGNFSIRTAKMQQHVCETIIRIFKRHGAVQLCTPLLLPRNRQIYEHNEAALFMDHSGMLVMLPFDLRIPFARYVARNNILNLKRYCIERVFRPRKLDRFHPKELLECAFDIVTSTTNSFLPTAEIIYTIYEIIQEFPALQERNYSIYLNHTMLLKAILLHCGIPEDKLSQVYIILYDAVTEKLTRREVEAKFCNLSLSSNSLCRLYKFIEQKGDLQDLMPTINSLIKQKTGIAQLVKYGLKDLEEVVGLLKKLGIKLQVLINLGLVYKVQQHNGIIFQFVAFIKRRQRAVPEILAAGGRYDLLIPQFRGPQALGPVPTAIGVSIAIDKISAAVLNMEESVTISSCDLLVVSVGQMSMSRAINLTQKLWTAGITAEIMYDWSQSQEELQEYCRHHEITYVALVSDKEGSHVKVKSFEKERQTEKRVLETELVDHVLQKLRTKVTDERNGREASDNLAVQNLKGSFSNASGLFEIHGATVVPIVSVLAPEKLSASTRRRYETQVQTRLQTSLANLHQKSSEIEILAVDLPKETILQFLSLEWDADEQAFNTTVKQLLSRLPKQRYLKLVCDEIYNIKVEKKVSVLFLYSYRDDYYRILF
In short: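 Phospho-eIF2α (Ser51) in lysates was quantified by AlphaScreen SureFire after a 1 h, 37 °C treatment of U2OS cells with 10 μM borrelidin and compound at 4-fold dilutions starting from 40 μM final. Inhibition expressed in percent against wells stimulated by borrelidin alone.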

Sequence of GCN2 kinase (Q9P2K8 whole entry): as above

Ki (GCN2 kinase) | IC50 [1] | Structure (SMILES)
100 to 1000 nM | > 5000 nM | CC(C)(C)OC(=O)N1CCC2CCN(c3ccnc(-c4cnc5cnc(C(F)F)cn45)n3)CC21 (stereo not drawn) [IV-132, tert-Butyl 6-(2-(6-(difluoromethyl)imidazo[1,2-a]pyrazin-3-yl)pyrimidin-4-yl)octahydro-1H-pyrrolo[2,3-c]pyridine-1-carboxylate]
100 to 1000 nM | > 5000 nM | CC1CCCN(c2ccnc(-c3cnc4cnc(C(F)F)cn34)n2)C1C (stereo not drawn) [IV-134, 6-(Difluoromethyl)-3-(4-(2,3-dimethylpiperidin-1-yl)pyrimidin-2-yl)imidazo[1,2-a]pyrazine]
100 to 1000 nM | > 5000 nM | FC(F)c1cn2c(-c3nccc(N4CCCC5CC54)n3)cnc2cn1 (stereo not drawn) [IV-135, 3-(4-(2-Azabicyclo[4.1.0]heptan-2-yl)pyrimidin-2-yl)-6-(difluoromethyl)imidazo[1,2-a]pyrazine]
100 to 1000 nM | > 5000 nM | OC[C@H]1CCCCN1c1ccnc(-c2cnc3cnc(C(F)F)cn23)n1 [IV-136, (R)-(1-(2-(6-(Difluoromethyl)imidazo[1,2-a]pyrazin-3-yl)pyrimidin-4-yl)piperidin-2-yl)methanol]
100 to 1000 nM | > 5000 nM | C[C@H]1CCCN(c2ccnc(-c3cnc4cnc(C(F)F)cn34)n2)C1 [IV-137, (S)-6-(Difluoromethyl)-3-(4-(3-methylpiperidin-1-yl)pyrimidin-2-yl)imidazo[1,2-a]pyrazine]
100 to 1000 nM | > 5000 nM | OC[C@@H]1CCCN(c2ccnc(-c3cnc4cnc(C(F)F)cn34)n2)C1 [IV-138, (R)-(1-(2-(6-(Difluoromethyl)imidazo[1,2-a]pyrazin-3-yl)pyrimidin-4-yl)piperidin-3-yl)methanol]
100 to 1000 nM | > 5000 nM | O=C(C1CCCN(c2ccnc(-c3cnc4cnc(C(F)F)cn34)n2)C1)N1CCNCC1 (stereo not drawn) [IV-139, (1-(2-(6-(Difluoromethyl)imidazo[1,2-a]pyrazin-3-yl)pyrimidin-4-yl)piperidin-3-yl)(piperazin-1-yl)methanone]
100 to 1000 nM | > 5000 nM | FC(F)c1cn2c(-c3nccc(N4CCC5(CCNCC5)C4)n3)cnc2cn1 [IV-140, 2-(2-(6-(Difluoromethyl)imidazo[1,2-a]pyrazin-3-yl)pyrimidin-4-yl)-2,8-diazaspiro[4.5]decane]
100 to 1000 nM | > 5000 nM | CS(C)(=O)=NC1CCCN(c2ccnc(-c3cnc4cnc(C(F)F)cn34)n2)C1 (stereo not drawn) [IV-141, ((1-(2-(6-(Difluoromethyl)imidazo[1,2-a]pyrazin-3-yl)pyrimidin-4-yl)piperidin-3-yl)imino)dimethyl-λ^6-sulfanone]
100 to 1000 nM | > 5000 nM | OC[C@H]1CCCN(c2ccnc(-c3cnc4cnc(C(F)F)cn34)n2)C1 [IV-142, (S)-(1-(2-(6-(Difluoromethyl)imidazo[1,2-a]pyrazin-3-yl)pyrimidin-4-yl)piperidin-3-yl)methanol]
100 to 1000 nM | > 5000 nM | NCC1CCCN(c2ccnc(-c3cnc4cnc(C(F)F)cn34)n2)C1 (stereo not drawn) [IV-143, (1-(2-(6-(Difluoromethyl)imidazo[1,2-a]pyrazin-3-yl)pyrimidin-4-yl)piperidin-3-yl)methanamine]
100 to 1000 nM | 500 to 5000 nM | CS(=O)(=O)N1CCC2CCN(c3ccnc(-c4cnc5cnc(C(F)F)cn45)n3)CC21 (stereo not drawn) [IV-144, 6-(Difluoromethyl)-3-(4-(1-(methylsulfonyl)octahydro-6H-pyrrolo[2,3-a]pyridin-6-yl)pyrimidin-2-yl)imidazo[1,2-a]pyrazine]
100 to 1000 nM | > 5000 nM | CS(=O)(=O)N1CCC2(CCN(c3ccnc(-c4cnc5cnc(C(F)F)cn45)n3)C2)CC1 [IV-145, 2-(2-(6-(Difluoromethyl)imidazo[1,2-a]pyrazin-3-yl)pyrimidin-4-yl)-8-(methylsulfonyl)-2,8-diazaspiro[4.5]decane]
100 to 1000 nM | > 5000 nM | CS(=O)(=O)NCc1cccc(-c2ccnc(-c3cnc4cnc(C(F)F)cn34)n2)c1 [IV-146, N-(3-(2-(6-(Difluoromethyl)imidazo[1,2-a]pyrazin-3-yl)pyrimidin-4-yl)benzyl)methanesulfonamide]
100 to 1000 nM | > 5000 nM | CS(=O)(=O)Nc1cccc(-c2ccnc(-c3cnc4cnc(C(F)F)cn34)n2)c1 [IV-147, N-(3-(2-(6-(Difluoromethyl)imidazo[1,2-a]pyrazin-3-yl)pyrimidin-4-yl)phenyl)methanesulfonamide]
100 to 1000 nM | > 5000 nM | NCS(=O)(=O)c1cccc(-c2ccnc(-c3cnc4cnc(C(F)F)cn34)n2)c1 [IV-148, ((3-(2-(6-(Difluoromethyl)imidazo[1,2-a]pyrazin-3-yl)pyrimidin-4-yl)phenyl)sulfonyl)methanamine]
100 to 1000 nM | > 5000 nM | O=C(c1cccc(-c2ccnc(-c3cnc4cnc(C(F)F)cn34)n2)c1)N1CCNCC1 [IV-150, (3-(2-(6-(Difluoromethyl)imidazo[1,2-a]pyrazin-3-yl)pyrimidin-4-yl)phenyl)(piperazin-1-yl)methanone]

Ki (GCN2 kinase) | IC50 [1] | Structure (SMILES)
100 to 1000 nM | > 5000 nM | CS(=O)(=O)NCC1CCCN(c2ccnc(-c3cnc4cnc(C(F)F)cn34)n2)C1 (stereo not drawn) [IV-152, N-((1-(2-(6-(Difluoromethyl)imidazo[1,2-a]pyrazin-3-yl)pyrimidin-4-yl)piperidin-3-yl)methyl)methanesulfonamide]
100 to 1000 nM | > 5000 nM | CCn1cc(-c2ccnc(-c3cnc4cnc(C(F)F)cn34)n2)cn1 [IV-154, 6-(Difluoromethyl)-3-(4-(1-ethyl-1H-pyrazol-4-yl)pyrimidin-2-yl)imidazo[1,2-a]pyrazine]
100 to 1000 nM | > 5000 nM | NC(=O)Cc1cccc(-c2ccnc(-c3cnc4cnc(C(F)F)cn34)n2)c1 [IV-155, 2-(3-(2-(6-(Difluoromethyl)imidazo[1,2-a]pyrazin-3-yl)pyrimidin-4-yl)phenyl)acetamide]
100 to 1000 nM | > 5000 nM | CC(=O)N1CC=C(c2ccnc(-c3cnc4cnc(C(F)F)cn34)n2)CC1 [IV-156, 1-(4-(2-(6-(Difluoromethyl)imidazo[1,2-a]pyrazin-3-yl)pyrimidin-4-yl)-3,6-dihydropyridin-1(2H)-yl)ethan-1-one]
100 to 1000 nM | > 5000 nM | N#CCc1cccc(-c2ccnc(-c3cnc4cnc(C(F)F)cn34)n2)c1 [IV-157, 2-(3-(2-(6-(Difluoromethyl)imidazo[1,2-a]pyrazin-3-yl)pyrimidin-4-yl)phenyl)acetonitrile]
100 to 1000 nM | > 5000 nM | NCc1cccc(-c2ccnc(-c3cnc4cnc(C(F)F)cn34)n2)c1 [IV-159, (3-(2-(6-(Difluoromethyl)imidazo[1,2-a]pyrazin-3-yl)pyrimidin-4-yl)phenyl)methanamine]
100 to 1000 nM | > 5000 nM | Oc1cccc(-c2ccnc(-c3cnc4cnc(C(F)F)cn34)n2)c1 [IV-161, 3-(2-(6-(Difluoromethyl)imidazo[1,2-a]pyrazin-3-yl)pyrimidin-4-yl)phenol]
100 to 1000 nM | > 5000 nM | OCc1cccc(-c2ccnc(-c3cnc4cnc(C(F)F)cn34)n2)c1 [IV-162, (3-(2-(6-(Difluoromethyl)imidazo[1,2-a]pyrazin-3-yl)pyrimidin-4-yl)phenyl)methanol]
100 to 1000 nM | > 5000 nM | CNS(=O)(=O)C1CCCN(c2ccnc(-c3cnc4cnc(C(F)F)cn34)n2)C1 (stereo not drawn) [IV-164, 1-(2-(6-(Difluoromethyl)imidazo[1,2-a]pyrazin-3-yl)pyrimidin-4-yl)-N-methylpiperidine-3-sulfonamide]
100 to 1000 nM | > 5000 nM | CS(=O)(=O)C1CCCN(c2ccnc(-c3cnc4cnc(C(F)F)cn34)n2)C1 (stereo not drawn) [IV-165, 6-(Difluoromethyl)-3-(4-(3-(methylsulfonyl)piperidin-1-yl)pyrimidin-2-yl)imidazo[1,2-a]pyrazine]
100 to 1000 nM | > 5000 nM | CN1CCN(Cc2cccc(-c3ccnc(-c4cnc5cnc(C(F)F)cn45)n3)c2)CC1 [IV-166, 6-(Difluoromethyl)-3-(4-(3-((4-methylpiperazin-1-yl)methyl)phenyl)pyrimidin-2-yl)imidazo[1,2-a]pyrazine]
100 to 1000 nM | > 5000 nM | NCC(=O)Nc1cccc(-c2ccnc(-c3cnc4cnc(C(F)F)cn34)n2)c1 [IV-167, 2-Amino-N-(3-(2-(6-(difluoromethyl)imidazo[1,2-a]pyrazin-3-yl)pyrimidin-4-yl)phenyl)acetamide]
100 to 1000 nM | > 5000 nM | CN(C1CCCN(c2ccnc(-c3cnc4cnc(C(F)F)cn34)n2)C1)S(C)(=O)=O (stereo not drawn) [IV-168, N-(1-(2-(6-(Difluoromethyl)imidazo[1,2-a]pyrazin-3-yl)pyrimidin-4-yl)piperidin-3-yl)-N-methylmethanesulfonamide]
100 to 1000 nM | > 5000 nM | CS(=O)(=O)NC1CCCN(c2ccnc(-c3cnc4cnc(C(F)F)cn34)n2)C1 (stereo not drawn) [IV-169, N-(1-(2-(6-(Difluoromethyl)imidazo[1,2-a]pyrazin-3-yl)pyrimidin-4-yl)piperidin-3-yl)methanesulfonamide]
100 to 1000 nM | > 5000 nM | CN(C)S(=O)(=O)C1CCCN(c2ccnc(-c3cnc4cnc(C(F)F)cn34)n2)C1 (stereo not drawn) [IV-170, 1-(2-(6-(Difluoromethyl)imidazo[1,2-a]pyrazin-3-yl)pyrimidin-4-yl)-N,N-dimethylpiperidine-3-sulfonamide]
100 to 1000 nM | > 5000 nM | O=S(=O)(NC1CCCC1)C1CCCN(c2ccnc(-c3cnc4cnc(C(F)F)cn34)n2)C1 (stereo not drawn) [IV-171, N-Cyclopentyl-1-(2-(6-(difluoromethyl)imidazo[1,2-a]pyrazin-3-yl)pyrimidin-4-yl)piperidine-3-sulfonamide]
